The text below walks through data of article PMC2781551, “Antibody Complementarity-Determining Regions (CDRs): A Bridge between Adaptive and Innate Immunity” (PLoS ONE, 2009).

In test [1] the test system is peritoneal murine macrophages (PM). Put plainly: Cytokine production by peritoneal macrophages (ELISA). The following applies: for reduction of TNF-α production induced by LPS / reduction of TNF-α production induced by VHCDR3: PM 5×10^6/ml, wortmannin 4 nM or SB203580 0,2 µM; for reduction of TNF-α production induced by LPS: LPS 10 µg/ml; for reduction of TNF-α production induced by VHCDR3: VHCDR3 10 µg/ml; for IL-6 production by PM: n = 7. It counts as cell-based, mouse (Balb/c). As for the experimental part:
DC and CD4^+ T cells were separated from spleens of inbred Balb/c mice using N-418 or L3T4 mAb-conjugated MicroBeads (Miltenyi Biotec, Bergisch Gladbach, Germany), and magnetic separation was performed according to the manufacturer's instruction. Peritoneal murine neutrophils (PMN) and macrophages (PM) were collected 18 h or 4 days, respectively, after the intraperitoneal injection of 1 ml endotoxin-free 10% thioglycolate solution (Difco).
(§1) Unfractionated spleen cells (10×10^6/ml), recovered from Balb/c mice, were cultured in the presence or absence of mAb HuA and mAb MoA CDR peptides, LPS or NC (all 10 µg/ml) for 18 h in RPMI-1640 plus 10% FCS (complete medium) at 37°C and 5% CO2. After incubation, the supernatants were collected and tested for TNF-α and IL-6 levels by specific ELISA assays (Biosource, Camarillo, CA, USA). In selected experiments, PM (5×10^6/ml) were cultured as above described. After incubation, the supernatants were collected and tested for TNF-α and IL-6 levels by specific ELISA assays (Biosource). PM (5×10^6/ml) were cultured in the presence or absence of mouse VHCDR3, LPS, NC or SP (all at 10 µg/ml) for 1 or 18 h in complete medium at 37°C and 5% CO2. PM (5×10^6/ml) were cultured as above described in the presence or absence of wortmannin (4 nM) or SB203580 (0,2 µM) (both from Sigma). After incubation, the supernatants were collected and tested for TNF-α level by specific ELISA assays (Biosource). In selected experiments, PM (5×10^6/ml) were cultured in the presence or absence of VHCDR3, LPS, NC, SP and nine VHCDR3 alanine-substituted derivatives (all at 10 µg/ml) for 18 h in complete medium at 37°C and 5% CO2. After incubation, the supernatants were collected and tested for TNF-α level by specific ELISA assays (Biosource). PMN (5×10^6/ml) were cultured in the presence or absence of mAb MoA CDR peptides, LPS or NC (all 10 µg/ml) for 18 h in complete medium at 37°C and 5% CO2. After incubation, the supernatants were collected and tested for TNF-α and IL-6 levels by specific ELISA assays (Biosource). Cytokine titers were calculated by reference to standard curves, constructed with known amounts of recombinant cytokines.
(In general: An ELISA detects its analyte on a solid surface through an enzyme-linked reagent.)

The next test relates to IkBα. As to the kind of experiment: Phospho-IkBα Western blotting in PM. It counts as cell-based, mouse (Balb/c). The settings on record: PM, wortmannin 4 nM with VHCDR3 10 µg/ml, 1 h, n = 5. The protocol:
After incubation, cells were washed and lysated with Mammalian protein extraction reagent (M-PER) in the presence of protease and phosphatase inhibitors (all from Pierce, Rockford, IL). Protein concentration was determined with a BCA protein Assay Reagent kit (Pierce). The lysates (30 µg of each sample) were separated by sodium dodecyl-sulfate-10% PAGE, transferred to a nitrocellulose membrane (Pierce) for 1 h at 100 V in a blotting system (Bio-Rad) for Western Blot analysis, and the membranes were incubated over-night with rabbit polyclonal Abs to phospho-Akt (pAkt; dilution 1/1000), phospho-IkBα (pIkBα; dilution 1/1000) (all from Cell Signalling Technology, Beverly, MA) and rabbit polyclonal Ab to TLR-4 (dilution 1/200) (Santa Cruz Biotechnology Inc.) in blocking buffer. […] Immunoreactive bands were visualized and quantified by Chemidoc Instrument (Bio-Rad). In particular, a quantitative analysis of the region of interest drawn around the outer edge of the band, was performed based on the guidelines for the use of the Chemidoc Instrument (Bio-Rad). […] All the parallelograms that form a band create one unique three-dimensional solid structure on which the volume is calculated. […]
A general note: Immunoblotting shows a protein as a band on a membrane.

The subject of test [2] is C. albicans strain (CA-6). The settings on record: previously proven; ref [8], [16]; cited from earlier work. An excerpt: The CDRs of human mAb HuA (IgM) and mouse mAb MoA (IgM) specific for the difucosyl human blood group A substance, were chemically synthesized on the basis of the previously described sequences of VH and VL chain [21]. An irrelevant synthetic decapeptide (MSTAVSKCAT), previously proven to be devoid of either candidacidal or immunomodulatory activity, was used as a negative control (NC), [16]. In selected experiments, a scramble peptide (SP) (YYWLQGGFAN) and nine VHCDR3 alanine-substituted derivatives were used for control of specificity and evalua ...

A further test deals with TNF-α gene. As to the kind of experiment: TNF-α gene expression in PM (quantitative RT-PCR). The following applies: PM 1×10^6/ml, 10 µg/ml, 1 and 6 h, qPCR normalized against GADPH, n = 5. It is filed as cell-based, mouse (Balb/c). The protocol:
(§2) After incubation, cells were lysed using Trizol reagent (Invitrogen, Carlsbad, CA), and total RNA was extracted. The reverse transcriptase (RT) reaction was performed using Moloney murine leukaemia virus reverse transcriptase (M-MLV RT), as described in the manufacturer's instructions (Invitrogen).
(§3) TNF-α, TLR-4, and GADPH clones for use as standards were prepared by PCR from cDNA derived from PM and cloned into p-Drive vector (Qiagen, S.p.A., Milano, Italy). These were verified by sequence analysis. Plasmid DNA was diluted 10-fold and the starting concentration for the dilution series was 10^8 gene copies/µl.
(§4) For each target gene, primers were selected using the Beacon Designer software (Bio-Rad, Hercules, CA). Real-time RT-PCR (quantitative RT-PCR) was performed in 96-well PCR plates using the SYBR green (all from BioRad). For real-time PCR reaction 100 ng/µl of reverse-transcribed RNA was used and cDNA was normalized according to GADPH as an internal NC gene. Amplification conditions were the same for TNF-α, TLR-4 and GADPH mRNAs assayed: 3 min at 95°C, 40 cycles of 10 s at 95°C and 30 s at 62°C. For the Melt Curve, the amplification condition was: 1 min at 50°C and 90 cycles of 10 s at 50°C. The experiments were performed using the iCycler IQ Multicolor Real-time PCR Detection System (BioRad).
For orientation: In qPCR the cycle at which signal appears reflects the starting amount.

The next test concerns TLR-4. Put plainly: TLR-4 expression in PM (flow cytometry). It is filed as cell-based, mouse (Balb/c). The following applies: PM 1×10^6/ml, 10 µg/ml, 1 h, RPE-labelled mAb to TLR-4, FACScan, representative experiment out of five. An excerpt:
Data are reported as percentage of positive cells. […] Data are expressed as percentage of positive cells.

The next test deals with murine splenocytes. As to the kind of experiment: Cytokine production by unfractionated spleen cells (ELISA). It counts as cell-based, mouse (Balb/c). The following applies: 10 µg/ml, 18 h, 10×10^6 cells/ml, ELISA of supernatants, data not shown. The protocol: as §1
For another test, the system named is TLR-4 gene. Put plainly: TLR-4 gene expression in PM (quantitative RT-PCR). It counts as cell-based, mouse (Balb/c). The settings on record: PM 1×10^6/ml, 10 µg/ml, 1 h, qPCR normalized against GADPH, n = 5. As for the experimental part:
as §2, §3, §4

Where [3] appears, read: 10 µg/ml, 18 h, 5×10^6 cells/ml, P<0.05 vs untreated.

As to `C[S+]([O-])c1ccc(-c2nc(-c3ccncc3)c(-c3ccc(F)cc3)[nH]2)cc1` (stereo not drawn) [SB203580], in test [1], the “reduction of TNF-α production induced by LPS” value turned out to be 28% and the “reduction of TNF-α production induced by VHCDR3” value is reported as 21%.
Turning to `COC[C@H]1OC(=O)c2coc3c2[C@@]1(C)C1=C(C3=O)[C@@H]2CCC(=O)[C@@]2(C)C[C@H]1OC(C)=O` [wortmannin], the “effect on VHCDR3-induced IkBα phosphorylation” value in the test with IkBα is given as “significantly reduced”. In addition, in test [1], the “reduction of TNF-α production induced by LPS” value came to 39% and the “reduction of TNF-α production induced by VHCDR3” value stood at 28%.
Regarding “MSTAVSKCAT [NC, irrelevant synthetic decapeptide used as a negative control, reference compound]”, the “candidacidal or immunomodulatory activity” value in test [2] is on record as “devoid”. Further, in the test with TNF-α gene, the “TNF-α gene expression, 1 and 6 h” value was “inability”. Further, in test [1] (setting [3]), the “TNF-α production by PM” value is “did not stimulate cytokine production” and the “IL-6 production by PM” value is “did not stimulate cytokine production”. Also, the “Percentage of TLR-4 positive cells” value in the test on TLR-4 turned out to be 24.1. Besides, in the test on murine splenocytes, the “IL-6 production by splenocytes” value was “did not affect cytokine production” and the “TNF-α production by splenocytes” value is recorded as “did not affect cytokine production”. Further, the “TLR-4 gene expression, 1 h” value in the test on TLR-4 gene is “No activation”.
Turning to “QQRSNWPRS [mAb HuA VLCDR3, synthetic VLCDR3 of human mAb HuA]”, the “IL-6 production by PM” value in test [1] (setting [3]) is reported as “significant up-regulation”. In the test with murine splenocytes, the “IL-6 production by splenocytes” value is recorded as “significant up-regulation”.
